Test results as given in ChEMBL document CHEMBL5241112, “Insights into the recent progress in the medicinal chemistry of pyranopyrimidine analogs” (RSC Med Chem, 2022).
≈ marks a conversion by molar mass, not a printed value.

Tests used:
[1] = tested on: HeLa; assay: Anticancer activity against human HeLa cells assessed as reduction in cell viability incubated for 48 hrs by MTT assay; format: functional, cell-based
[2] = tested on: MCF7; assay: cells; settings: Homo sapiens, MCF7, 48 h
[3] = tested on: MCF7; assay: cells; format: functional, cell-based; settings: Homo sapiens, MCF7, 96 h
[4] = tested on: HCT-116; assay: Anticancer activity against human HCT-116 cells assessed as reduction in cell viability incubated for 96 hrs by MTT assay; format: functional, cell-based; settings: HCT-116, 96 h
[5] = tested on: Aspergillus ochraceus; assay: Antifungal activity against Aspergillus ochraceus assessed as diameter of inhibition zone by disc diffusion method; format: functional
[6] = tested on: Penicillium chrysogenum; assay: Antifungal activity against Penicillium chrysogenum assessed as diameter of inhibition zone by disc diffusion method; format: functional
[7] = tested on: Staphylococcus aureus; assay: Antibacterial activity against Staphylococcus aureus NCIM 2654 assessed as diameter of inhibition zone incubated for 24 hrs by agar well diffusion method; format: functional
[8] = Antioxidant activity assessed as NO radical scavenging activity; format: functional
[9] = species on record: Capra hircus; assay: Inhibition of goat lens AR at 100 uM incubated for 10 mins in presence of NADPH by spectroscopic analysis
[10] = Antioxidant activity assessed as DPPH radical scavenging activity at 12 ug incubated for 30 mins by spectrophotometric analysis; format: functional; settings: dose 12.0 µg
[11] = molecular target: Urease (Canavalia ensiformis, UniProt P07374); assay: Inhibition of jack bean urease by phenol red method
Chain of Urease (P07374 whole entry): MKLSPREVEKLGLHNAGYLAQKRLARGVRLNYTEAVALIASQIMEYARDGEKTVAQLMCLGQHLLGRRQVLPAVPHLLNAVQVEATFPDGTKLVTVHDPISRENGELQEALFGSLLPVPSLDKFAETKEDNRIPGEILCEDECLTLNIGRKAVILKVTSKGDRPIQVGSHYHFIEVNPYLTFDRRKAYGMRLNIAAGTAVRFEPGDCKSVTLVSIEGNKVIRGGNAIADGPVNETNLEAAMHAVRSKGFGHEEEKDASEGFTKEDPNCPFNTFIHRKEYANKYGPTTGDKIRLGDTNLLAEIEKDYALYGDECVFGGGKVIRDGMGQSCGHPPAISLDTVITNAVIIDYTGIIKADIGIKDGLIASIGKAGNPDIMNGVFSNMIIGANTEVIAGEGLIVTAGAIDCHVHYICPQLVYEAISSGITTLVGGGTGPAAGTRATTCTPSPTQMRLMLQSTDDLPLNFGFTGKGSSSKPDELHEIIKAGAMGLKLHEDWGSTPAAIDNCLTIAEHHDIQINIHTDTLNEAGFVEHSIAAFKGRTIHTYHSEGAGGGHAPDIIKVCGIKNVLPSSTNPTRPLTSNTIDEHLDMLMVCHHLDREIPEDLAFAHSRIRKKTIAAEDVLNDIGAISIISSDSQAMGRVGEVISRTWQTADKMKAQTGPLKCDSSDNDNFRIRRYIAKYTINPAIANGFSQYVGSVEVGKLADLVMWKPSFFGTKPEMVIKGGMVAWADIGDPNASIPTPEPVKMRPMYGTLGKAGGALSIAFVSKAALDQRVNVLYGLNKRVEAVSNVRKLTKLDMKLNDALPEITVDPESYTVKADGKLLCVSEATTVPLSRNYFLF

[12] = Antioxidant activity assessed as DPPH radical scavenging activity incubated for 20 mins by spectrophotometric analysis; format: functional; parameters: concentration or dose not given beside the values
[13] = Antioxidant activity assessed as hydroxyl radical scavenging activity incubated for 5 mins by spectrophotometric analysis; format: functional; parameters: concentration or dose not given beside the values
[14] = Antioxidant activity assessed as H2O2 radical scavenging activity; format: functional

`O=C1Nc2c(c(=O)oc3ccccc23)C(c2cccc(O)c2)N1` (stereo not drawn) gave an IC50 [1] of 90 µM and an IC50 [2] of 38 µM.
Molecule `Cc1nc(O)c2c(n1)Oc1[nH]c(=O)[nH]c(=O)c1C2c1cccs1` (stereo not drawn) has an IC50 [3] of 4480 nM and an IC50 [4] of 2760 nM.
`CONC1=C(C#N)Oc2[nH]c(=O)[nH]c(=O)c2C1c1cccs1` (stereo not drawn) gave an IC50 [3] of 3120 nM and an IC50 [4] of 6380 nM.
`O=C1Nc2c(c(=O)oc3ccccc23)C(c2ccccc2O)N1` (stereo not drawn) gave an IC50 [1] of 38 µM and an IC50 [2] of 38 µM.
For `COc1ccc(C2NC(=O)Nc3c2c(=O)oc2ccccc32)cc1OC` (stereo not drawn), the IC50 [1] was 38 µM and the IC50 [2] was 38 µM.
In the case of `COc1ccc(C2c3c(N)ncnc3Oc3ccc4cc(Br)ccc4c32)cc1` (stereo not drawn), the “diameter of the inhibition zone (DIZ)” value [5] is reported as 17 mm and the “diameter of the inhibition zone (DIZ)” value [6] is reported as 13 mm.
For `Cc1n[nH]c2c1C(c1ccccc1O)c1c([nH]c(=O)[nH]c1=O)O2` (stereo not drawn), the “diameter of the inhibition zone (DIZ)” value [7] was 14 mm.
`O=c1[nH]c2c(c(=O)[nH]1)C(c1cccs1)c1[nH]c(=S)n(-c3ccccc3)c(=O)c1O2` (stereo not drawn) gave an IC50 [3] of 1280 nM and an IC50 [4] of 2760 nM.
With `Nc1ncnc2c1C(c1cc(Cl)ccc1O)c1ccc(O)cc1O2` (stereo not drawn) the IC50 [8] was 50.32 µg/mL (≈ 147 µM).
Molecule `O=C1Nc2c(c(=O)oc3ccccc23)C(c2ccc(Cl)cc2)N1` (stereo not drawn) has an IC50 [1] of 46 µM and an IC50 [2] of 33 µM.
Work on `O=c1c(O)c(-c2ccc(O)c(O)c2)oc2cc(O)cc(O)c12` yielded an inhibition [9] of 92%.
For `Brc1ccc2c3c(ccc2c1)Oc1ncn2ncnc2c1C3`, the “diameter of the inhibition zone (DIZ)” value [5] was 17 mm and the “diameter of the inhibition zone (DIZ)” value [6] was 13 mm.
With `COc1ccc(C2c3c(nc[nH]c3=O)Oc3ccc4cc(Br)ccc4c32)cc1` (stereo not drawn) the “diameter of the inhibition zone (DIZ)” value [5] was 17 mm and the “diameter of the inhibition zone (DIZ)” value [6] was 13 mm.
Molecule `Nc1ncnc2c1Oc1[nH]c(=O)[nH]c(=O)c1C2c1cccs1` (stereo not drawn) has an IC50 [3] of 870 nM and an IC50 [4] of 7250 nM.
With `Nc1nc(S)nc2c1Oc1[nH]c(=O)[nH]c(=O)c1C2c1cccs1` (stereo not drawn) the IC50 [3] was 2650 nM and the IC50 [4] was 2760 nM.
Work on `Cc1n[nH]c2c1C(c1ccncc1)c1c([nH]c(=O)[nH]c1=O)O2` (stereo not drawn) yielded an Activity [10] of 59%.
Work on `N#CC1=C(N)Oc2[nH]c(=O)[nH]c(=O)c2C1c1ccc(Cl)cc1Cl` (stereo not drawn) yielded an IC50 [11] of 19.5 µM.
For `O=c1[nH]c2c(c(=O)[nH]1)Oc1c(c(=O)oc3ccccc13)C2c1ccc(Cl)cc1` (stereo not drawn), the inhibition [9] was 47%, the Activity [12] was 71.5% and the Activity [13] was 68.3%.
For `Nc1nn(-c2cc([N+](=O)[O-])ccc2[N+](=O)[O-])c2c1Oc1[nH]c(=O)[nH]c(=O)c1C2c1cccs1` (stereo not drawn), the IC50 [3] was 3170 nM and the IC50 [4] was 2800 nM.
Work on `O=C1Nc2c(c(=O)oc3ccccc23)C(c2ccc(O)cc2)N1` (stereo not drawn) yielded an IC50 [1] of 38 µM and an IC50 [2] of 38 µM.
Work on `O=c1[nH]c2c(c(=O)[nH]1)Oc1c(c(=O)oc3ccccc13)C2c1cccc([N+](=O)[O-])c1` (stereo not drawn) yielded an inhibition [9] of 59%, an Activity [12] of 59.1% and an Activity [13] of 54.3%.
With `Brc1ccc2c3c(ccc2c1)Oc1ncn2nc(-c4ccccc4)nc2c1C3` the “diameter of the inhibition zone (DIZ)” value [5] was 17 mm and the “diameter of the inhibition zone (DIZ)” value [6] was 13 mm.
Work on `COc1ccc(C2C(C#N)=C(N)Oc3cc(O)ccc32)cc1` (stereo not drawn) yielded an IC50 [14] of 53.54 µg/mL (≈ 182 µM).
With `CN1C(=O)C2C(c3ccccc3)C(C#N)=C(N)OC2N(C)C1=O` (stereo not drawn) the IC50 [11] was 98.8 µM.
